In general, IC50 refers to the concentration needed to halve the response being measured. High values mean weaker potency, low ones greater potency.

From patent US20170137818A1, “APTAMER INHIBITING BIOLOGICAL ACTIVITY OF AUTOTAXIN BY BINDING WITH AUTOTAXIN, AND USE THEREOF” (RIBOMIC INC., priority 2014, published 2017) come the findings set out here.

The target of data set [1] is T1, autotaxin (Homo sapiens, UniProt Q13822).
T1 construct: His; purchased R&D
The data set can be described thus: NPP2 inhibitory assay (pNP-TMP substrate). It counts as biochemical. The settings on record: mean of 2-3 measurements ± standard deviation.
From the text: Whether an aptamer inhibits the enzyme activity of autotaxin can be evaluated, for example, by the following test. As a substrate of autotaxin, phosphodiester bond-containing synthetic substrate p-nitrophenyl thymidine 5′-monophosphate (pNP-TMP) (SIGMA) is used. A phosphodiester bond is cleaved by hydrolysis, and p-nitrophenol is liberated. The p-nitrophenol develops a yellow color, and the color is detected. For the assay, a 96-well plate (96-Well EIAsurasshuRIA Polystyrene Plates, Costar) was used, and the amount of the reaction mixture was 200 μL. Nucleic acid was prepared in solution A (see below-mentioned Example 1) (100 μL), pNP-TMP (20 μL) adjusted to 10 mM in the reaction mixture A was added, and the mixture was stirred well and heated at 37° C. for 5 min. On the other hand, 6 ng of autotaxin (Recombinant Human, manufactured by R&D) diluted with solution A was prepared (80 μL), and heated at 37° C. for 5 min. After heating, they were mixed to start an enzyme reaction. The final autotaxin concentration in the reaction solution was 0.3 nM, and the final substrate concentration was 1 mM. A plate containing the reaction mixture was heated at 37° C. for 24 hr, placed in a microplate reader SpectraMax190 (manufactured by Molecular Devices) and the absorbance was determined at wavelength 405 nm. The absorbance when nucleic acid is not added as 100% (A0), an enzyme activity rate was determined from the absorbance (A) of each test substance and according to the following formula.
Enzyme activity rate=(A/A0)×100
(§1) The concentration (IC50) of an inhibitor necessary for inhibiting the enzyme activity by 50% was determined.
Whether these nucleic acids show an autotaxin inhibitory activity was evaluated by the following method. As a substrate of autotaxin, phosphodiester bond-containing synthetic substrate p-nitrophenyl thymidine 5′-monophosphate (pNP-TMP) (SIGMA) was selected (hereinafter to be referred to as NPP2 inhibitory assay). A phosphodiester bond is cleaved by hydrolysis, and p-nitrophenol is liberated. The p-nitrophenol develops a yellow color, and the color is detected. For the assay, a 96-well plate (96-Well EIA/RIA Polystyrene Plates, Costar) was used, and the amount of the reaction mixture was 200 μL. As the reaction mixture, solution A was used. Nucleic acids were prepared in solution A (100 μL), pNP-TMP (20 μL) adjusted to 10 mM in the reaction mixture A was added, and the mixture was stirred well and heated at 37° C. for 5 min. On the other hand, 6 ng of autotaxin diluted with solution A was prepared (80 μL), and heated at 37° C. for 5 min. After heating, they were mixed to start enzyme reaction. The final autotaxin concentration in the reaction solution was 0.3 nM, and the final substrate concentration was 1 mM. A plate containing the reaction mixture was heated at 37° C. for 24 hr, placed in a microplate reader SpectraMax190 (manufactured by Molecular Devices) and the absorbance was determined at wavelength 405 nm. The absorbance when nucleic acids are not added as 100% (A0), an […] was determined from the absorbance (A) of each test substance and according to the following formula.
as §1

In data set [2] the target is T1, autotaxin. The data set can be described thus: Biacore surface plasmon resonance, autotaxin immobilized on CM4 chip, nucleic acid as analyte. The class given is binding. The conditions noted are these: autotaxin immobilized about 2700 RU, nucleic acid 0.3 μM as analyte; maximum RU relative to SEQ ID NO: 12. On the procedure: In another measurement method, an autotaxin is first immobilized on a sensorchip. The immobilization amount is set to about 2700 RU. An aptamer solution as an analyte prepared to 0.30 μM is injected by 20 μL, and binding of the aptamer to the autotaxin is detected.
All nucleic acids of SEQ ID NOs: 11-16 were produced by chemical synthesis. Whether these nucleic acids bind to autotaxin was evaluated by the surface plasmon resonance method. For the measurement, Biacore T100 manufactured by GE Healthcare was used, and the measurement was performed by the method shown below. About 2700 RU autotaxin was immobilized on a sensorchip surface of CM4 chip by using an amino coupling kit. The flow rate was 20 μL/min, and nucleic acids (20 μL) prepared to 0.3 μM were injected as an analyte. As a running buffer, solution A was used.

Data set [3] concerns the target T1, autotaxin. The data set can be described thus: LysoPLD inhibitory assay (14:0 LPC substrate, choline detection). It counts as biochemical. The text has this:
As a substrate of autotaxin, 14:0 lysophosphatidylcholine (LPC, Avanti) was selected (hereinafter to be referred to as LysoPLD inhibitory assay). LPC is hydrolyzed by the lysophospholipase D activity of autotaxin and decomposed into lysophosphatidic acid (LPA) and choline. Choline is oxidized by choline oxidase to afford hydrogen peroxide. In the presence of the hydrogen peroxide and peroxidase, N-ethyl-N-(2-hydroxy-3-sulfopropyl)-3-methoxyaniline (TOOS) and 4-aminoantipyrine (4-AA) undergo oxidation condensation reaction, which develops a purple color to be detected.
For the reaction, a 96-well plate (polypropylene 96-well, manufactured by BMbio) was used, and the amount of the reaction mixture was 60 μL. As a reaction solution, solution A was used. […] The lysophospholipase D activity of autotaxin was evaluated as follows. […] The absorbance was measured at a wavelength of 548 nm, and used as a blank value. Then, solution C (50 μL) was added, and changes in the absorbance at wavelength 548 nm were measured over time. Solution C contained 100 mM tris (pH 8.0), 10 U/mL choline oxidase (manufactured by TOYOBO), 1 mM 4-AA (manufactured by DOJINDO), and 0.01% Triton-X. The absorbance of solution blank at the time point when solution B was added, which had been measured earlier, was subtracted from the absorbance at 15 min after addition of solution C, whereby true absorbance value was obtained. […]

Data set [4] deals with T1, autotaxin. The data set can be described thus: Biacore surface plasmon resonance, nucleic acid immobilized on SA chip, autotaxin as analyte. It counts as binding. The conditions noted are these: Example 1, running text. On the procedure:
Biacore T100 manufactured by GE Healthcare is used for the measurement of binding strength. In one measurement method, an aptamer is first immobilized on a sensorchip. The immobilization amount is set to about 1500 RU. An autotaxin solution as an analyte prepared to 0.020 μM is injected by 20 μL, and binding of the autotaxin to the aptamer is detected.
All nucleic acids shown in SEQ ID NOs: 4-10 were produced by chemical synthesis. The binding activity of these nucleic acids to autotaxin was evaluated by the surface plasmon resonance method. For the measurement, Biacore T100 manufactured by GE Healthcare was used. The SA chips with streptavidin immobilized thereon were used as the sensor chips. Binding thereto was about 1500 RU of 16 nucleotide Poly dT of which biotin was bound to the 5′-terminus. The nucleic acids used as a ligand were added with Poly A (16 nucleotides) to the 3′-terminus, and were immobilized on SA chips by T-A annealing. The nucleic acids (20 μL) were injected at a flow rate of 20 μL/min to immobilize about 1500 RU of the nucleic acids. An autotaxin for analyte was prepared at 0.02 μM, and 20 μL thereof was injected. As a running buffer, solution A (mixed solution of 145 mM sodium chloride, 5.4 mM potassium chloride, 1.8 mM calcium chloride, 0.8 mM magnesium chloride, 20 mM Tris (pH 7.6), 0.05% Tween20) was used.

[5] abbreviates: Table 4, >1.0 = no inhibitory activity up to 1.0 μM.

As to “26 (CGCTGGGGTACGCTCGGAACCGAGGCAATTGGTCAGCG; DNA, backbone and methylation of C not given here) [compound 26]”, it took 440 ± 41 nM to reach half-maximal inhibition in the data set with autotaxin [1] (setting [5]) (IC50).

For “14 (GGGACGGAACCAGAATACTTTTGGTCTCCC; DNA, backbone and methylation of C not given here) [compound 14]”, the IC50 with autotaxin [1] (Table 2) was determined as 42 ± 5 nM. Besides, the “Binding activity by Biacore” value in the data set with autotaxin [2] was “+ (not less than that)”.

On to “16 (CTGGACGGAACCAGAATACTTTTGGTCTCCAG; DNA, backbone and methylation of C not given here) [compound 16]”, for which the IC50 in the data set with autotaxin [1] (Table 2) came to 18 ± 1 nM. The “Binding activity by Biacore” value with autotaxin [2] was “+ (not less than that)”.

In turn, “27 (TACGCTCGGAACCGAGGCAATTGGTCAGCGTG; DNA, backbone and methylation of C not given here) [compound 27]” returned an IC50 with autotaxin [1] (setting [5]) of 24 ± 10 nM.

In the case of “12 (CCTGGACGGAACCAGAATACTTTTGGTCTCCAGG; chemistry not fully specified) [compound 12]”, the “Binding activity by Biacore” value with autotaxin [2] is “+ (not less than that)”.

The compound “28 (ACAGGCGCTGGCCGGAACCGTGCATATGGTC; DNA, backbone and methylation of C not given here) [compound 28]” registered a half-inhibitory concentration (IC50) with autotaxin [1] (setting [5]) greater than 1000 nM.

In the data set with autotaxin [1] (setting [5]), “29 (GCTGGCCGGAACCGTGCATATGGTCGCCAGC; DNA, backbone and methylation of C not given here) [compound 29]” registered an IC50 of 11 ± 4 nM.

For `CCCCCCCCCCCCCC(=O)Nc1ccc(CP(=O)(O)O)cc1` [S32826], the “LysoPLD inhibitory activity (in words)” value at autotaxin [3] was “an inhibitory activity was not found”. This compound yielded a half-inhibitory concentration (IC50) on autotaxin [3] (autotaxin 2.1 nM, 14:0 LPC 2 mM, 37° C. 6 hr, mean of 2-3 measurements±standard deviation, >1000 = no inhibitory activity up to 1000 nM) greater than 1000 nM.

In turn, “15 (CCTGGACGGAACCAATACTTGGTCTCCAGG; DNA, backbone and methylation of C not given here) [compound 15]” displayed a half-maximal inhibitory concentration (IC50) with autotaxin [1] (Table 2) of 990 ± 11 nM. Further, in the data set with autotaxin [2], the “Binding activity by Biacore” value is given as “− (not more than 10% of the aptamer shown in SEQ ID NO: 12 that showed the highest binding amount)”.

In the data set with autotaxin [1] (Table 2), “13 (TGGACGGAACCAGAATACTTTTGGTCTCCA; DNA, backbone and methylation of C not given here) [compound 13]” registered an IC50 of 110 ± 7 nM. Also, the “Binding activity by Biacore” value with autotaxin [2] is given as “+ (not less than that)”.

Regarding “GTGGTCTAGCTGTACTCNNNNNNNNNNNNNNNNNNNNNNNNNNNNNNNNNNNNNNNNCCACAGTCAACGAGCTA [SEQ ID NO: 1(40N), reference compound]”, on autotaxin [4], the “binding to autotaxin (in words)” value is reported as “not bind”.

“11 (GTACTCATGGACGGAACCAGAATACTTTTGGTCTCCATTGAGTAC; chemistry not fully specified) [compound 11]”: the “Binding activity by Biacore” value with autotaxin [2] is reported as “+ (not less than that)”.
